The values below come from article PMC11650737, “Developing MYC Degraders Bearing the Von Hippel–Lindau Ligand to Target the “Undruggable” MYC” (ACS Pharmacology & Translational Science, 2024).

A short description of data set [1]: Stability of PROTACs in cell medium (DMEM), LC-MS/MS. The class given is physicochemical. Conditions: 72 h at 37 °C, 5 μM in DMEM (10% FBS). The procedure: The stability of selected molecules, such as CSI86, was studied in cell medium over a time frame of 72 h at 37 °C.
The stability of most compounds, including CSI86 PROTAC, was evaluated in DMEM. The drug was prepared at a concentration of 5 μM in DMEM (10% FBS, 1% pen/strep) and aliquoted at approximately 200 μL per Eppendorf. The samples were collected at appropriate time points (0, 1 h, 2 h, 4 h, 8 h, 24 h, 48 h, and 72 h) and stored at −80 °C. On the day of the LC-MS/MS analysis, samples were prepared (50 μL drug in DMEM + 50 μL ACN:H2O + 50 μL IS + 100 μL cold ACN), vortexed, sonicated, and centrifuged at 13 000 rpm for 15 min. Then, samples were transferred into glass tubes, diluted in the initial mobile phase (20% Α – 80% Β), centrifuged for 1 min, and added to a 96-well plate for the LC-MS/MS analysis.

For data set [2], the system named is SKBR3 cells. Description: Cell uptake / intracellular concentration by LC-MS/MS, SKBR3. The format is in vitro ADME, human. The note with it: SKBR3, 24 h incubation with 10 μM. The procedure:
Therefore, in order to better comprehend the observed activities of our degraders, following incubation of each compound with cells, the intracellular concentrations of the synthesized derivatives were evaluated in different cancer cell lines, as described previously.[28],[29] SKBR3, PC3, or A549 cells were incubated with PROTACs (at a 10 μΜ concentration) for selected time points, respectively. Upon sample treatment, compounds were extracted and analyzed by LC-MS/MS. Table 1 presents the percentage of the molecule that enters the cells after 24 h incubation at the 10 μM concentration. […] The small molecule MYCi361, used as a binding domain component of MYC, was also evaluated in the cell uptake assay (Table 1).
Cells were plated in 24-well plates at a density of 2 × 10^5 cells/well. 24 h after seeding, cells were incubated with each PROTAC (10 μΜ) for certain time points (1 h, 4 h, 8 h, and 24 h). The incubations were terminated at the selected time points by removing the medium and washing the cells twice with 1 mL cold PBS (1×) in each well in order to remove unbound PROTAC. Subsequently, the cells were lysed by adding a cold solution of ACN:H2O (3:2) and scraping off the cell monolayer. This process was done in two steps: first, 200 μL of ACN:H2O was added, the cells were scraped, and the cell lysate was collected. The second step involved the addition of an extra 100 μL of ACN:H2O, scraping, and collection of the remaining lysate. Samples were subsequently vortexed, sonicated, and centrifuged for 10 min at 13 000 rpm. The supernatants were collected, evaporated for 1 h at 55 °C, and stored at −20 °C until the day of analysis. Samples were then reconstituted in 200 μL of initial mobile phase (100% A), and the intracellular accumulation of PROTACs was determined by LC-MS/MS analysis using Warfarin as a stable internal standard and PROTAC standards for the construction of analytical standard curves.
The percentage of cell uptake was calculated as follows: [drawing 1]

Several values for one entry are separate records, joined by “and”; a condition that tells them apart may be missing. Equal entries are not always repeated.

For the compound `Cc1ncsc1-c1ccc(CNC(=O)[C@@H]2C[C@@H](O)CN2C(=O)[C@@H](NC(=O)CCC(=O)NCCCOc2ccc(-c3cc(C(F)(F)F)nn3C)c(O)c2-c2cc(C(F)(F)F)cc(C(F)(F)F)c2)C(C)(C)C)cc1` [CSI86], the “stability in cell medium (DMEM)” value in data set [1] is “stable”. The Uptake by cells in data set [2] is 26% and 26 ± 5%. The same compound came in with an intracellular concentration in data set [2] (corresponding to the uptake) of 2.6 µM.
